Measurements: PubChem BioAssay (NCI)
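Dose response: 5 concentrations. Exposure: 48 h. Format: 96-well plates. Endpoint: linear interpolation; highest concentration if not reached. At the TGI there is no net growth.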

Assays:
Assay in all cases: growth of human tumour cells (NCI), 48 h
EKVX NSCLC = test system: EKVX NSCLC
OVCAR-3 ovarian = test system: OVCAR-3 ovarian
786-0 renal = test system: 786-0 renal
UACC-257 melanoma = test system: UACC-257 melanoma
HL-60(TB) leukemia = test system: HL-60(TB) leukemia
HCT-116 colon = test system: HCT-116 colon
SK-MEL-5 melanoma = test system: SK-MEL-5 melanoma
SN12C renal = test system: SN12C renal
NCI-H23 lung = test system: NCI-H23 lung
NCI-H522 lung = test system: NCI-H522 lung
K-562 leukemia = test system: K-562 leukemia
NCI-H460 lung = test system: NCI-H460 lung
COLO 205 colon = test system: COLO 205 colon
SNB-19 CNS = test system: SNB-19 CNS
SK-OV-3 ovarian = test system: SK-OV-3 ovarian
OVCAR-4 ovarian = test system: OVCAR-4 ovarian
BT-549 breast = test system: BT-549 breast
HS 578T breast = test system: HS 578T breast
SNB-75 CNS = test system: SNB-75 CNS
MDA-N = test system: MDA-N
T-47D breast = test system: T-47D breast
PC-3 prostate = test system: PC-3 prostate
M14 melanoma = test system: M14 melanoma
CAKI-1 renal = test system: CAKI-1 renal
A498 renal = test system: A498 renal
DU-145 prostate = test system: DU-145 prostate
HCC-2998 colon = test system: HCC-2998 colon
ACHN renal = test system: ACHN renal
IGROV1 ovarian = test system: IGROV1 ovarian
KM12 colon = test system: KM12 colon
UO-31 renal = test system: UO-31 renal
A549 NSCLC = test system: A549 NSCLC
SF-295 CNS = test system: SF-295 CNS
HOP-92 NSCLC = test system: HOP-92 NSCLC
OVCAR-8 ovarian = test system: OVCAR-8 ovarian
MALME-3M melanoma = test system: MALME-3M melanoma
HOP-62 NSCLC = test system: HOP-62 NSCLC
MDA-MB-435 = test system: MDA-MB-435
RXF 393 renal = test system: RXF 393 renal
RPMI-8226 leukemia = test system: RPMI-8226 leukemia
U251 CNS = test system: U251 CNS
OVCAR-5 ovarian = test system: OVCAR-5 ovarian
SK-MEL-2 melanoma = test system: SK-MEL-2 melanoma
MCF7 breast = test system: MCF7 breast
UACC-62 melanoma = test system: UACC-62 melanoma
SF-539 CNS = test system: SF-539 CNS
MOLT-4 leukemia = test system: MOLT-4 leukemia
SK-MEL-28 melanoma = test system: SK-MEL-28 melanoma
SW-620 colon = test system: SW-620 colon
HCT-15 colon = test system: HCT-15 colon
NCI-H226 lung = test system: NCI-H226 lung
NCI/ADR-RES ovarian = test system: NCI/ADR-RES ovarian
TK-10 renal = test system: TK-10 renal
CCRF-CEM leukemia = test system: CCRF-CEM leukemia
SF-268 CNS = test system: SF-268 CNS
HT29 colon = test system: HT29 colon
MDA-MB-231 breast = test system: MDA-MB-231 breast
LOX IMVI melanoma = test system: LOX IMVI melanoma

Measured: TGI

Cc1ccc2c3c4c(ccc13)C(C)(C)OC4=C(C(C)C)C2=O
55.2 µM: HS 578T breast
29 µM: HOP-62 NSCLC
27.9 µM: NCI-H226 lung
39.2 µM: HT29 colon
> 100 µM: EKVX NSCLC | 786-0 renal | UACC-257 melanoma | HL-60(TB) leukemia | HCT-116 colon | SK-MEL-5 melanoma | SN12C renal | NCI-H23 lung | NCI-H522 lung | K-562 leukemia | NCI-H460 lung | COLO 205 colon | SNB-19 CNS | SK-OV-3 ovarian | OVCAR-4 ovarian | BT-549 breast | SNB-75 CNS | MDA-N | T-47D breast | M14 melanoma | CAKI-1 renal | A498 renal | DU-145 prostate | HCC-2998 colon | ACHN renal | IGROV1 ovarian | KM12 colon | UO-31 renal | A549 NSCLC | SF-295 CNS | HOP-92 NSCLC | OVCAR-8 ovarian | MALME-3M melanoma | MDA-MB-435 | RXF 393 renal | RPMI-8226 leukemia | U251 CNS | OVCAR-5 ovarian | MCF7 breast | UACC-62 melanoma | SF-539 CNS | MOLT-4 leukemia | SK-MEL-28 melanoma | SW-620 colon | HCT-15 colon | NCI/ADR-RES ovarian | TK-10 renal | CCRF-CEM leukemia | SF-268 CNS | MDA-MB-231 breast
26.8 µM: OVCAR-3 ovarian
27.6 µM: PC-3 prostate
30.7 µM: SK-MEL-2 melanoma

Oc1cccc2cc(Cl)cnc12
61.6 µM: RPMI-8226 leukemia
98.9 µM: EKVX NSCLC
> 88.4 µM: HCC-2998 colon
> 68.5 µM: T-47D breast
> 31.1 µM: OVCAR-3 ovarian
> 77.5 µM: A498 renal
6.27 µM: HL-60(TB) leukemia
> 83.5 µM: HS 578T breast
> 69.2 µM: HT29 colon
27.4 µM: MOLT-4 leukemia
22 µM: NCI-H522 lung
37.8 µM: HCT-116 colon
99 µM: SF-539 CNS
> 83.4 µM: IGROV1 ovarian
99.1 µM: SK-MEL-5 melanoma
81.7 µM: UACC-257 melanoma
15.5 µM: CCRF-CEM leukemia
97.5 µM: NCI-H226 lung
> 90.6 µM: OVCAR-4 ovarian
38.3 µM: K-562 leukemia
30.3 µM: NCI/ADR-RES ovarian
> 100 µM: 786-0 renal | SN12C renal | NCI-H23 lung | NCI-H460 lung | COLO 205 colon | SNB-19 CNS | SK-OV-3 ovarian | BT-549 breast | SNB-75 CNS | MDA-N | PC-3 prostate | M14 melanoma | CAKI-1 renal | DU-145 prostate | ACHN renal | KM12 colon | UO-31 renal | A549 NSCLC | SF-295 CNS | HOP-92 NSCLC | OVCAR-8 ovarian | MALME-3M melanoma | HOP-62 NSCLC | MDA-MB-435 | U251 CNS | OVCAR-5 ovarian | SK-MEL-2 melanoma | MCF7 breast | SK-MEL-28 melanoma | SW-620 colon | HCT-15 colon | TK-10 renal | SF-268 CNS | MDA-MB-231 breast
> 79.6 µM: RXF 393 renal
> 64.1 µM: LOX IMVI melanoma
> 44.7 µM: UACC-62 melanoma
